Test results as given in patent US9302999B2, “Substituted triazoles as herbicides” (E. I. DU PONT DE NEMOURS AND COMPANY, priority 2012, dated 2016).
Read-outs that look alike come from different tables or passages of the source.

Experiments:
Assay type in all cases: in vivo
[1] = test system: barnyardgrass (Echinochloa crus-galli); experiment: Test A pre-/postemergence: barnyardgrass; conditions: for pest or weed control at 125 g/ha / pest or weed control at 500 g/ha: Echinochloa crus-galli, 240 h
Source text: (§1) Seeds of barnyardgrass (Echinochloa crus-galli), crabgrass, large (large crabgrass, Digitaria sanguinalis), foxtail, giant (giant foxtail, Setaria faberii), morningglory (Ipomoea spp.), pigweed (Amaranthus retroflexus), velvetleaf (Abutilon theophrasti), wheat (Triticum aestivum), and corn (Zea mays) were planted into a blend of loam soil and sand and treated preemergence with a directed soil spray using test chemicals formulated in a non-phytotoxic solvent mixture which included a surfactant. At the same time these species were also treated with postemergence applications of test chemicals formulated in the same manner.
(§2) Plants ranged in height from two to ten cm and were in the one- to two-leaf stage for the postemergence treatment. Treated plants and untreated controls were maintained in a greenhouse for approximately ten days, after which time all treated plants were compared to untreated controls and visually evaluated for injury. Plant response ratings, summarized in Table A, are based on a 0 to 100 scale where 0 is no effect and 100 is complete control. A dash (-) response means no test result.

[2] = test system: crabgrass, large (large crabgrass, Digitaria sanguinalis); experiment: Test A pre-/postemergence: crabgrass, large; conditions: for pest or weed control at 125 g/ha / pest or weed control at 500 g/ha: Digitaria sanguinalis, 240 h
Source text: as §1, §2

[3] = test system: foxtail, giant (giant foxtail, Setaria faberii); experiment: Test A pre-/postemergence: foxtail, giant; conditions: for pest or weed control at 125 g/ha / pest or weed control at 500 g/ha: Setaria faberi, 240 h
Source text: as §1, §2

[4] = test system: morningglory (Ipomoea spp.); experiment: Test A pre-/postemergence: morningglory; conditions: for pest or weed control at 125 g/ha / pest or weed control at 500 g/ha: Ipomoea, 240 h
Source text: as §1, §2

[5] = test system: pigweed (Amaranthus retroflexus); experiment: Test A pre-/postemergence: pigweed; conditions: for pest or weed control at 125 g/ha / pest or weed control at 500 g/ha: Amaranthus retroflexus, 240 h
How it was run: (§3)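 Pre: directed soil spray after planting in loam + sand. Post: same formulation (non-phytotoxic solvent + surfactant) on 1–2-leaf plants, 2–10 cm. Greenhouse ~10 d; visual injury 0–100 vs untreated.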

[6] = test system: velvetleaf (Abutilon theophrasti); experiment: Test A pre-/postemergence: velvetleaf; conditions: for pest or weed control at 125 g/ha / pest or weed control at 500 g/ha: Abutilon theophrasti, 240 h
How it was run: as §3

[7] = test system: wheat (Triticum aestivum); experiment: Test A pre-/postemergence: wheat; conditions: for plant injury at 125 g/ha / plant injury at 500 g/ha: Triticum aestivum, 240 h
How it was run: as §3

[8] = test system: corn (Zea mays); experiment: Test A pre-/postemergence: corn
How it was run: as §3

[9] = Postemergence, 125 g ai/ha, 0 to 100 scale, 0 is no effect, 100 is complete control
[10] = Postemergence, 500 g ai/ha, visual rating on 0 to 100 scale (0 no effect, 100 complete control), approximately ten days
[11] = Preemergence, 125 g ai/ha, 0 to 100 scale where 0 is no effect and 100 is complete control
[12] = Preemergence, 500 g ai/ha, 0 to 100 scale (0 no effect, 100 complete control)

OCc1nn(-c2ccc(C(F)(F)F)cc2)nc1Oc1cccc(OC(F)(F)F)c1 [Compound 114, 5-[3-(trifluoromethoxy)phenoxy]-2-[4-(trifluoromethyl)phenyl]-2H-1,2,3-triazole-4-methanol]
pest or weed control at 125 g/ha ([1]; post-emergence, Postemergence, 125 g ai/ha, 0 to 100 scale, 0 is no effect, 100 is complete control, read-out: Barnyardgrass plant response rating): 30% | pest or weed control at 500 g/ha ([1]; post-emergence, Postemergence, 500 g ai/ha, visual rating on 0 to 100 scale (0 no effect, 100 complete control), approximately ten days, read-out: Barnyardgrass plant response rating): 30% | pest or weed control at 125 g/ha ([1]; pre-emergence, Preemergence, 125 g ai/ha, 0 to 100 scale where 0 is no effect and 100 is complete control, read-out: Plant response rating, Barnyardgrass): 0% | pest or weed control at 500 g/ha ([1]; pre-emergence, Preemergence, 500 g ai/ha, 0 to 100 scale (0 no effect, 100 complete control), read-out: Plant response rating, Barnyardgrass): 0% | pest or weed control at 125 g/ha ([2]; post-emergence, Postemergence, 125 g ai/ha, 0 to 100 scale, 0 is no effect, 100 is complete control, read-out: Crabgrass, Large plant response rating): 30% | pest or weed control at 500 g/ha ([2]; post-emergence, Postemergence, 500 g ai/ha, visual rating on 0 to 100 scale (0 no effect, 100 complete control), approximately ten days, read-out: Crabgrass, Large plant response rating): 70% | pest or weed control at 125 g/ha ([2]; pre-emergence, Preemergence, 125 g ai/ha, 0 to 100 scale where 0 is no effect and 100 is complete control, read-out: Plant response rating, Crabgrass, Large): 0% | pest or weed control at 500 g/ha ([2]; pre-emergence, Preemergence, 500 g ai/ha, 0 to 100 scale (0 no effect, 100 complete control), read-out: Plant response rating, Crabgrass, Large): 30% | pest or weed control at 125 g/ha ([3]; post-emergence, Postemergence, 125 g ai/ha, 0 to 100 scale, 0 is no effect, 100 is complete control, read-out: Foxtail, Giant plant response rating): 30% | pest or weed control at 500 g/ha ([3]; post-emergence, Postemergence, 500 g ai/ha, visual rating on 0 to 100 scale (0 no effect, 100 complete control), approximately ten days, read-out: Foxtail, Giant plant response rating): 40% | pest or weed control at 125 g/ha ([3]; pre-emergence, Preemergence, 125 g ai/ha, 0 to 100 scale where 0 is no effect and 100 is complete control, read-out: Plant response rating, Foxtail, Giant): 0% | pest or weed control at 500 g/ha ([3]; pre-emergence, Preemergence, 500 g ai/ha, 0 to 100 scale (0 no effect, 100 complete control), read-out: Plant response rating, Foxtail, Giant): 10% | pest or weed control at 125 g/ha ([4]; post-emergence, Postemergence, 125 g ai/ha, 0 to 100 scale, 0 is no effect, 100 is complete control, read-out: Morningglory plant response rating): 60% | pest or weed control at 500 g/ha ([4]; post-emergence, Postemergence, 500 g ai/ha, visual rating on 0 to 100 scale (0 no effect, 100 complete control), approximately ten days, read-out: Morningglory plant response rating): 90% | pest or weed control at 125 g/ha ([4]; pre-emergence, Preemergence, 125 g ai/ha, 0 to 100 scale where 0 is no effect and 100 is complete control, read-out: Plant response rating, Morningglory): 10% | pest or weed control at 500 g/ha ([4]; pre-emergence, Preemergence, 500 g ai/ha, 0 to 100 scale (0 no effect, 100 complete control), read-out: Plant response rating, Morningglory): 30% | pest or weed control at 125 g/ha ([5]; post-emergence, Postemergence, 125 g ai/ha, 0 to 100 scale, 0 is no effect, 100 is complete control, read-out: Pigweed plant response rating): 80% | pest or weed control at 500 g/ha ([5]; post-emergence, Postemergence, 500 g ai/ha, visual rating on 0 to 100 scale (0 no effect, 100 complete control), approximately ten days, read-out: Pigweed plant response rating): 90% | pest or weed control at 125 g/ha ([5]; pre-emergence, Preemergence, 125 g ai/ha, 0 to 100 scale where 0 is no effect and 100 is complete control, read-out: Plant response rating, Pigweed): 0% | pest or weed control at 500 g/ha ([5]; pre-emergence, Preemergence, 500 g ai/ha, 0 to 100 scale (0 no effect, 100 complete control), read-out: Plant response rating, Pigweed): 10% | pest or weed control at 125 g/ha ([6]; post-emergence, Postemergence, 125 g ai/ha, 0 to 100 scale, 0 is no effect, 100 is complete control, read-out: Velvetleaf plant response rating): 30% | pest or weed control at 500 g/ha ([6]; post-emergence, Postemergence, 500 g ai/ha, visual rating on 0 to 100 scale (0 no effect, 100 complete control), approximately ten days, read-out: Velvetleaf plant response rating): 50% | pest or weed control at 125 g/ha ([6]; pre-emergence, Preemergence, 125 g ai/ha, 0 to 100 scale where 0 is no effect and 100 is complete control, read-out: Plant response rating, Velvetleaf): 0% | pest or weed control at 500 g/ha ([6]; pre-emergence, Preemergence, 500 g ai/ha, 0 to 100 scale (0 no effect, 100 complete control), read-out: Plant response rating, Velvetleaf): 10% | plant injury at 125 g/ha ([7]; post-emergence, Postemergence, 125 g ai/ha, 0 to 100 scale, 0 is no effect, 100 is complete control, read-out: Wheat plant response rating): 10% | plant injury at 500 g/ha ([7]; post-emergence, Postemergence, 500 g ai/ha, visual rating on 0 to 100 scale (0 no effect, 100 complete control), approximately ten days, read-out: Wheat plant response rating): 30% | plant injury at 125 g/ha ([7]; pre-emergence, Preemergence, 125 g ai/ha, 0 to 100 scale where 0 is no effect and 100 is complete control, read-out: Plant response rating, Wheat): 0% | plant injury at 500 g/ha ([7]; pre-emergence, Preemergence, 500 g ai/ha, 0 to 100 scale (0 no effect, 100 complete control), read-out: Plant response rating, Wheat): 0% | plant injury at 125 g/ha ([8]; Zea mays, post-emergence, 240 h, Postemergence, 125 g ai/ha, 0 to 100 scale, 0 is no effect, 100 is complete control, read-out: Corn plant response rating): 20% | plant injury at 500 g/ha ([8]; Zea mays, post-emergence, 240 h, Postemergence, 500 g ai/ha, visual rating on 0 to 100 scale (0 no effect, 100 complete control), approximately ten days, read-out: Corn plant response rating): 30% | Corn plant response rating (crop injury, 0 = no effect, 100 = complete kill) at 125 g/ha ([8]; Zea mays, pre-emergence, 240 h, Preemergence, 125 g ai/ha, 0 to 100 scale where 0 is no effect and 100 is complete control): 0% | Corn plant response rating (crop injury, 0 = no effect, 100 = complete kill) at 500 g/ha ([8]; Zea mays, pre-emergence, 240 h, Preemergence, 500 g ai/ha, 0 to 100 scale (0 no effect, 100 complete control)): 0%

Cc1nn(-c2ccc(F)cc2)nc1Oc1cc(C(F)(F)F)ccn1 [Compound 128]
Barnyardgrass plant response rating [1, 9]: 0 | Barnyardgrass plant response rating [1, 10]: 20 | Plant response rating, Barnyardgrass [1, 11]: 0 | Plant response rating, Barnyardgrass [1, 12]: 0 | Crabgrass, Large plant response rating [2, 9]: 10 | Crabgrass, Large plant response rating [2, 10]: 20 | Plant response rating, Crabgrass, Large [2, 11]: 0 | Plant response rating, Crabgrass, Large [2, 12]: 20 | Foxtail, Giant plant response rating [3, 9]: 0 | Foxtail, Giant plant response rating [3, 10]: 10 | Plant response rating, Foxtail, Giant [3, 11]: 0 | Plant response rating, Foxtail, Giant [3, 12]: 20 | Morningglory plant response rating [4, 9]: 30 | Morningglory plant response rating [4, 10]: 30 | Plant response rating, Morningglory [4, 11]: 0 | Plant response rating, Morningglory [4, 12]: 20 | Pigweed plant response rating [5, 9]: 30 | Pigweed plant response rating [5, 10]: 40 | Plant response rating, Pigweed [5, 11]: 0 | Plant response rating, Pigweed [5, 12]: 0 | Velvetleaf plant response rating [6, 9]: 20 | Velvetleaf plant response rating [6, 10]: 30 | Plant response rating, Velvetleaf [6, 11]: 0 | Plant response rating, Velvetleaf [6, 12]: 0 | Wheat plant response rating [7, 9]: 0 | Wheat plant response rating [7, 10]: 0 | Plant response rating, Wheat [7, 11]: 0 | Plant response rating, Wheat [7, 12]: 0 | Corn plant response rating [8, 9]: 10 | Corn plant response rating [8, 10]: 10 | Plant response rating, Corn [8, 11]: 0 | Plant response rating, Corn [8, 12]: 0
